Data as given in patent publication US20240140933A1, “OXOINDOLINE COMPOUND FOR THE TREATMENT OF INFLAMMATORY DISEASES OR CANCER” (Hoffmann-La Roche Inc., priority 2021, published 2024).

target: PDHK1 (Homo sapiens (Human), UniProt Q15118); experiment: PDHK1 enzymatic assay (AlphaScreen, phosphorylation of PDHE1 S293); assay type: biochemical; conditions: 1 nM PDHK1, 25 nM PDHE1, 20 μM ATP, 30° C. for 45 minutes
Text: Pyruvate dehydrogenase complex (PDHc) is an enzyme that catalyzes the reaction of pyruvate and a lipoamide to give the acetylated dihydrolipoamide and carbon dioxide. PDHc has three subunits E1, E2 and E3. E1 has 3 serine phosphorylation sites S293, S232, S300. If E1 was phosphorylated, PDH will be inactivated. PDHK can phosphorylate PDH protein (also named PDHE1) in PDH complex (PDC) to inactivate it.

Chain of PDHK1 (Q15118 29-436): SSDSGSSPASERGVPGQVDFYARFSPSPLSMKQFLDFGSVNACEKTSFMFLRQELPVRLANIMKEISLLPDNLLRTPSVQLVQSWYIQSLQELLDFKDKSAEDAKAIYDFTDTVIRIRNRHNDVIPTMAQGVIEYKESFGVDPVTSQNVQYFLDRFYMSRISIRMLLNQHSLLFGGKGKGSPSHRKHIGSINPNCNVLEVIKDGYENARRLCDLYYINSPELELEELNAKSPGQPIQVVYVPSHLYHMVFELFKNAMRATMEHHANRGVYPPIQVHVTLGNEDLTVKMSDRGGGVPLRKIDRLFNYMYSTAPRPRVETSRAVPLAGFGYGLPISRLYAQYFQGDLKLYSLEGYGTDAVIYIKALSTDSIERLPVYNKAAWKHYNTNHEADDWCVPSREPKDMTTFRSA

Compound | Enzymatic IC50 against PDHK1
CCNc1cc(F)cc2c1NC(=O)C2(C)N1CCC[C@@H](NC(=O)c2cccc(OS(=O)(=O)F)c2)C1 (stereo partly drawn) [Example 44, 7-(ethylamino)-5-fluoro-3-[(3R)-3-[(3-fluorosulfonyloxybenzoyl)amino]-1-piperidyl]-3-methyl-2-oxo-indoline] | 0.022 µg/mL
CCNc1cc(F)cc2c1NC(=O)C2(C)N1CCC[C@@H](NC(=O)C2CC3(C2)CN(C(=O)CCl)C3)C1 (stereo partly drawn) [Example 40, 2-(2-chloroacetyl)-N-[(3R)-1-[7-(ethylamino)-5-fluoro-3-methyl-2-oxo-indolin-3-yl]-3-piperidyl]-2-azaspiro[3.3]heptane-6-carboxamide] | 0.017 µg/mL
CCNc1cc(F)cc2c1NC(=O)C2(C)N1CC[C@H](c2ccccc2)[C@@H](NC(=O)C2CN(C#N)C2)C1 (stereo partly drawn) [Example 54, 1-cyano-N-[(3R,4R)-1-[7-(ethylamino)-5-fluoro-3-methyl-2-oxo-indolin-3-yl]-4-phenyl-3-piperidyl]azetidine-3-carboxamide] | 0.009 µg/mL
CCNc1cc(F)cc2c1NC(=O)C2(C)N1CCC[C@@H](NC(=O)C2CCN(C#N)CC2)C1 (stereo partly drawn) [Example 38, 1-cyano-N-[(3R)-1-[7-(ethylamino)-5-fluoro-3-methyl-2-oxo-indolin-3-yl]-3-piperidyl]piperidine-4-carboxamide] | 0.026 µg/mL
CCNc1cc(F)cc2c1NC(=O)[C@]2(C)N1CC[C@H](c2ccccc2)[C@H](C(N)=O)C1 [Example 63A, (3S,4S)-1-[(3R)-7-(ethylamino)-5-fluoro-3-methyl-2-oxo-indolin-3-yl]-4-phenyl-piperidine-3-carboxamide] | 0.009 µg/mL
CCNc1cc(F)cc2c1NC(=O)C2(CC)N1CCC[C@@H](N(C(C)=O)c2ccc(C#N)nc2)C1 (stereo partly drawn) [Example 25, N-(6-cyano-3-pyridyl)-N-[(3R)-1-[3-ethyl-7-(ethylamino)-5-fluoro-2-oxo-indolin-3-yl]-3-piperidyl]acetamide] | 0.142 µg/mL
CCNc1cc(F)cc2c1NC(=O)C2(C)N1CCC[C@@H](Nc2ccc(OS(=O)(=O)F)nc2)C1 (stereo partly drawn) [Example 33, 7-(ethylamino)-5-fluoro-3-methyl-2-oxo-3-[(3R)-3-[(6-fluorosulfonyloxy-3-pyridyl)amino]-1-piperidyl]indoline] | 0.068 µg/mL
CCNc1cc(F)cc2c1NC(=O)C2(CC)N1CC[C@H](F)[C@@H](Nc2ccc(C#N)nc2)C1 (stereo partly drawn) [Example 49, 5-[[(3S,4S)-1-[3-ethyl-7-(ethylamino)-5-fluoro-2-oxo-indolin-3-yl]-4-fluoro-3-piperidyl]amino]pyridine-2-carbonitrile] | 0.007 µg/mL
CCNc1cc(F)cc2c1NC(=O)C2(C)N1CC[C@H](c2ccccc2Oc2ccc(C(=O)O)cc2)[C@@H](NC(C)=O)C1 (stereo partly drawn) [Example 56, 4-[2-[(3R,4R)-3-acetamido-1-[7-(ethylamino)-5-fluoro-3-methyl-2-oxo-indolin-3-yl]-4-piperidyl]phenoxy]benzoic acid] | 0.005 µg/mL
CCNc1cc(F)cc2c1NC(=O)C2(C)N1CCC[C@@H](NC(=O)c2ccc(S(=O)(=O)F)cc2)C1 (stereo partly drawn) [Example 43, 4-[[(3R)-1-[7-(ethylamino)-5-fluoro-3-methyl-2-oxo-indolin-3-yl]-3-piperidyl]carbamoyl]benzenesulfonyl fluoride] | 0.016 µg/mL
CCNc1cc(F)cc2c1NC(=O)C2(C)N1CCC[C@@H](NC(=O)c2cccc(S(=O)(=O)F)c2)C1 (stereo partly drawn) [Example 42, 3-[[(3R)-1-[7-(ethylamino)-5-fluoro-3-methyl-2-oxo-indolin-3-yl]-3-piperidyl]carbamoyl]benzenesulfonyl fluoride] | 0.020 µg/mL
CCNc1cc(F)cc2c1NC(=O)C2(C)N1CC[C@H](c2ccccc2Oc2ccc(C(N)=O)cc2)[C@@H](NC(C)=O)C1 (stereo partly drawn) [Example 57, 4-[2-[(3R,4R)-3-acetamido-1-[7-(ethylamino)-5-fluoro-3-methyl-2-oxo-indolin-3-yl]-4-piperidyl]phenoxy]benzamide] | 0.019 µg/mL
CCNc1cc(F)cc2c1NC(=O)C2(C)N1CCC[C@@H](Nc2cccc(OS(=O)(=O)F)c2)C1 (stereo partly drawn) [Example 31, 7-(ethylamino)-5-fluoro-3-methyl-2-oxo-3-[(3R)-3-(3-fluorosulfonyloxyanilino)-1-piperidyl]indoline] | 0.197 µg/mL
CCNc1cc(F)cc2c1NC(=O)C2(C)N1CCC[C@@H](Oc2ccc(O)c(C=O)c2)C1 (stereo partly drawn) [Example 2, 5-[[(3R)-1-[7-(ethylamino)-5-fluoro-3-methyl-2-oxo-indolin-3-yl]-3-piperidyl]oxy]-2-hydroxy-benzaldehyde] | 0.015 µg/mL
CCNc1cc(F)cc2c1NC(=O)C2(CC)N1CCC[C@@H](N(C(N)=O)c2ccc(C#N)nc2)C1 (stereo partly drawn) [Example 26, 1-(6-cyano-3-pyridyl)-1-[(3R)-1-[3-ethyl-7-(ethylamino)-5-fluoro-2-oxo-indolin-3-yl]-3-piperidyl]urea] | 0.067 µg/mL
CCNc1cc(F)cc2c1NC(=O)C2(C)N1CCCC(NC(=O)C2CC3(C2)CN(C#N)C3)C1 (stereo in doubt) [Example 37, 2-cyano-N-[(3R)-1-[7-(ethylamino)-5-fluoro-3-methyl-2-oxo-indolin-3-yl]-3-piperidyl]-2-azaspiro[3.3]heptane-6-carboxamide] | 0.039 µg/mL

The remaining lines, values ahead:

Enzymatic IC50 against PDHK1 | Compound
0.143 µg/mL | CCNc1cc(F)cc2c1NC(=O)C2(C)N1CCC[C@@H](Cc2ccc(C(N)=O)cc2)C1 (stereo partly drawn) [Example 6, 4-[[(3S)-1-[7-(ethylamino)-5-fluoro-3-methyl-2-oxo-indolin-3-yl]-3-piperidyl]methyl]benzamide]
0.016 µg/mL | CCNc1cc(F)cc2c1NC(=O)C2(C)N1CCC[C@@H](N(C)c2ccc(C(N)=O)nc2)C1 (stereo partly drawn) [Example 24, 5-[[(3R)-1-[7-(ethylamino)-5-fluoro-3-methyl-2-oxo-indolin-3-yl]-3-piperidyl]-methyl-amino]pyridine-2-carboxamide]
0.019 µg/mL | CCNc1cc(F)cc2c1NC(=O)C2(C)N1C[C@@H](C)C[C@@H](Nc2ccc(C#N)nc2)C1 (stereo partly drawn) [Example 47, 5-[[(3R,5S)-1-[7-(ethylamino)-5-fluoro-3-methyl-2-oxo-indolin-3-yl]-5-methyl-3-piperidyl]amino]pyridine-2-carbonitrile]
0.012 µg/mL | CCNc1cc(F)cc2c1NC(=O)C2(C)N1C[C@@H](F)C[C@@H](Nc2ccc(C#N)nc2)C1 (stereo partly drawn) [Example 46, 5-[[(3R,5S)-1-[7-(ethylamino)-5-fluoro-3-methyl-2-oxo-indolin-3-yl]-5-fluoro-3-piperidyl]amino]pyridine-2-carbonitrile]
0.059 µg/mL | CCNc1cc(F)cc2c1NC(=O)C2(C)N1CCC[C@H](Nc2ccc(C(=O)O)nc2)C1 (stereo partly drawn) [Example 10, 5-[[(3S)-1-[7-(ethylamino)-5-fluoro-3-methyl-2-oxo-indolin-3-yl]-3-piperidyl]amino]pyridine-2-carboxylic acid]
0.060 µg/mL | CCNc1cc(F)cc2c1NC(=O)C2(C)N1CCC[C@@H](Nc2cnc(C#N)cn2)C1 (stereo partly drawn) [Example 15, 5-[[(3R)-1-[7-(ethylamino)-5-fluoro-3-methyl-2-oxo-indolin-3-yl]-3-piperidyl]amino]pyrazine-2-carbonitrile]
0.020 µg/mL | CCNc1cc(F)cc2c1NC(=O)C2(C)N1CCC[C@@H](Nc2ccc(C(=O)O)nc2)C1 (stereo partly drawn) [Example 11, 5-[[(3R)-1-[7-(ethylamino)-5-fluoro-3-methyl-2-oxo-indolin-3-yl]-3-piperidyl]amino]pyridine-2-carboxylic acid]
0.007 µg/mL | CCNc1cc(F)cc2c1NC(=O)C2(C)N1CCC[C@@H](Nc2ccc(C#N)cn2)C1 (stereo partly drawn) [Example 14, 6-[[(3R)-1-[7-(ethylamino)-5-fluoro-3-methyl-2-oxo-indolin-3-yl]-3-piperidyl]amino]pyridine-3-carbonitrile]
0.062 µg/mL | CCNc1cc(F)cc2c1NC(=O)C2(C)N1CCC[C@@H](Nc2ccc(C(N)=O)nc2)C1 (stereo partly drawn) [Example 12, 5-[[(3R)-1-[7-(ethylamino)-5-fluoro-3-methyl-2-oxo-indolin-3-yl]-3-piperidyl]amino]pyridine-2-carboxamide]
0.030 µg/mL | CCNc1cc(F)cc2c1NC(=O)C2(C)N1CCC[C@@H](NC(=O)c2cc(F)c(O)c(F)c2)C1 (stereo partly drawn) [Example 35, N-[(3R)-1-[7-(ethylamino)-5-fluoro-3-methyl-2-oxo-indolin-3-yl]-3-piperidyl]-3,5-difluoro-4-hydroxy-benzamide]
0.047 µg/mL | CCNc1cc(F)cc2c1NC(=O)C2(C)N1CCC[C@@H](Nc2ccc(C#N)nn2)C1 (stereo partly drawn) [Example 16, 6-[[(3R)-1-[7-(ethylamino)-5-fluoro-3-methyl-2-oxo-indolin-3-yl]-3-piperidyl]amino]pyridazine-3-carbonitrile]

same assay, conditions: 1 nM PDHK1, 25 nM PDHE1, 20 μM ATP, 30° C. for 45 minutes; read-out: Enzymatic IC50 against PDHK1 (converted)

IC50 | Compound
379 nM | CCNc1cc(F)cc2c1NC(=O)C2(C)N1CCC[C@@H](Cc2ccc(C#N)cc2)C1 (stereo partly drawn) [Example 7, 4-[[(3S)-1-[7-(ethylamino)-5-fluoro-3-methyl-2-oxo-indolin-3-yl]-3-piperidyl]methyl]benzonitrile]
21.2 nM | CCNc1cc(F)cc2c1NC(=O)[C@@]2(C)N1CC[C@@H](c2ccccc2)[C@@H](C(=O)NC)C1 [Example 60B, (3R,4R)-1-[(3S)-7-(ethylamino)-5-fluoro-3-methyl-2-oxo-indolin-3-yl]-N-methyl-4-phenyl-piperidine-3-carboxamide]
15.2 nM | CCNc1cc(F)cc2c1NC(=O)[C@@]2(C)N1CCC[C@@H](Oc2ccc(C(=O)O)c(Cl)c2)C1 [Example 1B, 2-chloro-4-[[(3R)-1-[(3S)-7-(ethylamino)-5-fluoro-3-methyl-2-oxo-indolin-3-yl]-3-piperidyl]oxy]benzoic acid]
